Assay results from patent publication US12371464B2, “Polypeptides and uses thereof” (MEDIMMUNE LIMITED, priority 2020, dated 2025).
Numbered stars: 1 amine (or outer) side, 2 acyl side, 3 side chain; on linkers, the order of the positions; unused ones are H or OH. Bridge positions count the residues as written; N and C are the ends. Square brackets hold non-standard residues; d marks the D form. Side chains are listed from the residue outwards. Peptide text beside a SMILES is read from it. * marks the point of attachment. C20 diacid = O=C(O)CCCCCCCCCCCCCCCCCCC(=O)*; C18 diacid = O=C(O)CCCCCCCCCCCCCCCCC(=O)*; γGlu = O=C(O)[C@H](CCC(=O)[*:2])N[*:1]; αMeF = C[C@](N)(Cc1ccccc1)C(=O)O; Dab = NCC[C@H](N)C(=O)O; AEEA = NCCOCCOCC(=O)O; Aib = CC(C)(N)C(=O)O

Experiment: Thioflavin T fibrillation assay
Format: physicochemical
Conditions: for Time taken to detect increase in fluorescence intensity: 1 mg/mL in 25 mM sodium acetate buffer pH 4.0, 37° C., 6 days, orbital shaking, >144 h = no increase; for fibril-forming tendency on conjugating pramlintide to a lipid: as seen in Table 7
Excerpt: Peptide aggregation that form fibrils is an indication of physical instability. Fibril formation in solution poses a significant risk for the stability of injectable peptide drug products. Thioflavin T (ThT) fibrillation assay is a useful tool to assess the aggregation kinetics of a peptide or protein under accelerated and stressed conditions that can be used to forecast the long-term viability of a compound in solution. ThT can selectively bind amyloid fibrils and the resultant complex emits strong fluorescence signal at 482 nm when excited at 450 nm (Anal Biochem. 1989 March; 177 (2): 244-9). Monitoring of the change in fluorescence signal is an established method to study the fibril forming potential of peptides and proteins. ThT (purchased from Sigma Aldrich) stock solution is prepared by dissolving the ThT powder in Milli-Q water and filtered to obtain a 0.25 mM solution. The concentration of the solution is measured at 412 nm using an extinction coefficient of 36 mM-1 cm-1. Test peptides were dissolved at 1 mg/mL in 25 mM sodium acetate buffer pH 4.0. 100 μL aliquot of peptide solution and 5 μL aliquot of ThT solution were placed in a clear bottom black fluorescence 96-well plate. 5 replicates of each test samples were placed in the same row of the plate. Buffer was placed in control wells for baseline correction. All empty wells were filled with water to prevent evaporation. The plate was sealed with aluminium seal and placed in fluorescence plate reader and incubated for 6 days at 37° C. with intermittent orbital shaking at 500 to 750 rpm. The fluorescence intensity was measured every 30 min using excitation at 444 nm and emission at 480 nm. The fibril forming potential of the test peptides was determined by measuring the average time taken to detect an increase in baseline corrected fluorescence intensity.

SMILES	Time taken to detect increase in fluorescence intensity [h]	fibril-forming tendency on conjugating pramlintide to a lipid
CC[C@H](C)[C@H](NC(=O)[C@@H]1CCCN1C(=O)CNC(=O)[C@H](Cc1ccccc1)NC(=O)[C@H](CC(N)=O)NC(=O)[C@H](CC(N)=O)NC(=O)[C@H](CO)NC(=O)[C@H](CO)NC(=O)[C@H](Cc1c[nH]cn1)NC(=O)[C@@H](NC(=O)[C@H](CC(C)C)NC(=O)[C@H](Cc1ccccc1)NC(=O)[C@H](CC(N)=O)NC(=O)[C@H](C)NC(=O)[C@H](CC(C)C)NC(=O)[C@H](CCCNC(=N)N)NC(=O)[C@H](CCC(N)=O)NC(=O)[C@@H](NC(=O)[C@H](C)NC(=O)[C@@H]1CSSC[C@H](NC(=O)[C@H](CCCCN)NC(=O)CC[C@H](NC(=O)CCCCCCCCCCCCCCCCCCC(=O)O)C(=O)O)C(=O)N[C@@H](CC(N)=O)C(=O)N[C@@H]([C@@H](C)O)C(=O)N[C@@H](C)C(=O)N[C@@H]([C@@H](C)O)C(=O)N1)[C@@H](C)O)C(C)C)C(=O)N[C@@H](CC(C)C)C(=O)N1CCC[C@H]1C(=O)N1CCC[C@H]1C(=O)N[C@H](C(=O)N[C@@H](CC(N)=O)C(=O)N[C@H](C(=O)NCC(=O)N[C@@H](CO)C(=O)N[C@@H](CC(N)=O)C(=O)N[C@H](C(=O)N[C@@H](Cc1ccc(O)cc1)C(N)=O)[C@@H](C)O)C(C)C)[C@@H](C)O [Peptide 112] ({C20 diacid-γGlu}-KCNTATCATQRLANFLVHSSNNFGPILPPTNVGSNTY-NH2; disulfide 2-7)	<5	increases the fibril-forming tendency
CC[C@H](C)[C@H](NC(=O)[C@@H]1CCCN1C(=O)CNC(=O)[C@H](Cc1ccccc1)NC(=O)[C@H](CC(N)=O)NC(=O)C(C)(C)NC(=O)[C@H](CO)NC(=O)[C@H](CO)NC(=O)[C@H](Cc1c[nH]cn1)NC(=O)[C@@H](NC(=O)[C@H](CC(C)C)NC(=O)[C@H](Cc1ccccc1)NC(=O)[C@H](CC(N)=O)NC(=O)[C@H](C)NC(=O)[C@H](CC(C)C)NC(=O)[C@H](CCCNC(=N)N)NC(=O)[C@H](CCC(N)=O)NC(=O)[C@@H](NC(=O)[C@H](C)NC(=O)[C@@H]1CSSC[C@H](NC(=O)[C@H](CCCCN)NC(=O)[C@@H](N)CCCCNC(=O)CC[C@H](NC(=O)CCCCCCCCCCCCCCCCC(=O)O)C(=O)O)C(=O)N[C@@H](CC(N)=O)C(=O)N[C@@H]([C@@H](C)O)C(=O)N[C@@H](C)C(=O)N[C@@H]([C@@H](C)O)C(=O)N1)[C@@H](C)O)C(C)C)C(=O)N[C@@H](CC(C)C)C(=O)N1CCC[C@H]1C(=O)N1CCC[C@H]1C(=O)N[C@H](C(=O)NC(C)(C)C(=O)N[C@H](C(=O)NCC(=O)N[C@@H](CO)C(=O)N[C@@H](CC(N)=O)C(=O)N[C@H](C(=O)N[C@@H](Cc1ccc(O)cc1)C(N)=O)[C@@H](C)O)C(C)C)[C@@H](C)O [Peptide 80, K(γE-C18diacid)K[CNTATC]ATQRLANFLVHSS(Aib)NFGPILPPT(Aib)VGSNTY-amide] (H-K([γGlu-C18 diacid])KCNTATCATQRLANFLVHSS[Aib]NFGPILPPT[Aib]VGSNTY-NH2; disulfide 3-8; N-terminus assumed)	>144	
CC[C@H](C)[C@H](NC(=O)[C@@H]1CCCN1C(=O)CNC(=O)[C@H](Cc1ccccc1)NC(=O)[C@H](CC(N)=O)NC(=O)[C@H](CC(N)=O)NC(=O)[C@H](CO)NC(=O)[C@H](CO)NC(=O)[C@H](Cc1c[nH]cn1)NC(=O)[C@@H](NC(=O)[C@H](CC(C)C)NC(=O)[C@H](Cc1ccccc1)NC(=O)[C@H](CC(N)=O)NC(=O)[C@H](C)NC(=O)[C@H](CC(C)C)NC(=O)[C@H](CCCNC(=N)N)NC(=O)[C@H](CCC(N)=O)NC(=O)[C@@H](NC(=O)[C@H](C)NC(=O)[C@@H]1CSSC[C@H](NC(=O)[C@@H](N)CCCCNC(=O)COCCOCCNC(=O)COCCOCCNC(=O)CC[C@H](NC(=O)CCCCCCCCCCCCCCCCC(=O)O)C(=O)O)C(=O)N[C@@H](CC(N)=O)C(=O)N[C@@H]([C@@H](C)O)C(=O)N[C@@H](C)C(=O)N[C@@H]([C@@H](C)O)C(=O)N1)[C@@H](C)O)C(C)C)C(=O)N[C@@H](CC(C)C)C(=O)N1CCC[C@H]1C(=O)N1CCC[C@H]1C(=O)N[C@H](C(=O)N[C@@H](CC(N)=O)C(=O)N[C@H](C(=O)NCC(=O)N[C@@H](CO)C(=O)N[C@@H](CC(N)=O)C(=O)N[C@H](C(=O)N[C@@H](Cc1ccc(O)cc1)C(N)=O)[C@@H](C)O)C(C)C)[C@@H](C)O [Peptide 6] (H-K([AEEA-AEEA-γGlu-C18 diacid])CNTATCATQRLANFLVHSSNNFGPILPPTNVGSNTY-NH2; disulfide 2-7; N-terminus assumed)	15	increases the fibril-forming tendency

Results, then the molecule that gave them:

Time taken to detect increase in fluorescence intensity [h]	fibril-forming tendency on conjugating pramlintide to a lipid	SMILES
>144		CC[C@H](C)[C@H](NC(=O)[C@@H]1CCCN1C(=O)CNC(=O)[C@H](Cc1ccccc1)NC(=O)[C@H](CC(N)=O)NC(=O)[C@H](CC(N)=O)NC(=O)[C@H](CO)NC(=O)[C@H](CO)NC(=O)[C@H](Cc1c[nH]cn1)NC(=O)[C@@H](NC(=O)[C@H](CC(C)C)NC(=O)[C@H](Cc1ccccc1)NC(=O)[C@H](CCN)NC(=O)[C@H](C)NC(=O)[C@H](CC(C)C)NC(=O)[C@H](CCCNC(=N)N)NC(=O)[C@H](CCC(N)=O)NC(=O)[C@@H](NC(=O)[C@H](C)NC(=O)[C@@H]1CSSC[C@H](NC(=O)[C@H](CCCCN)NC(=O)[C@@H](N)CCCCNC(=O)CC[C@H](NC(=O)CCCCCCCCCCCCCCCCC(=O)O)C(=O)O)C(=O)N[C@@H](CC(N)=O)C(=O)N[C@@H]([C@@H](C)O)C(=O)N[C@@H](C)C(=O)N[C@@H]([C@@H](C)O)C(=O)N1)[C@@H](C)O)C(C)C)C(=O)N[C@@H](CC(C)C)C(=O)N1CCC[C@H]1C(=O)N1CCC[C@H]1C(=O)N[C@H](C(=O)N[C@@H](CC(N)=O)C(=O)N[C@H](C(=O)NCC(=O)N[C@@H](CO)C(=O)N[C@@H](CC(N)=O)C(=O)N[C@H](C(=O)N[C@@H](Cc1ccc(O)cc1)C(N)=O)[C@@H](C)O)C(C)C)[C@@H](C)O [Peptide 33] (H-K([γGlu-C18 diacid])KCNTATCATQRLA[Dab]FLVHSSNNFGPILPPTNVGSNTY-NH2; disulfide 3-8; N-terminus assumed)
>144		CC[C@H](C)[C@H](NC(=O)[C@@H]1CCCN1C(=O)CNC(=O)[C@](C)(Cc1ccccc1)NC(=O)[C@H](CC(N)=O)NC(=O)[C@H](CC(N)=O)NC(=O)[C@H](CO)NC(=O)[C@H](CO)NC(=O)[C@H](Cc1c[nH]cn1)NC(=O)[C@@H](NC(=O)[C@H](CC(C)C)NC(=O)[C@H](Cc1ccccc1)NC(=O)[C@H](CC(N)=O)NC(=O)[C@H](C)NC(=O)[C@H](CC(C)C)NC(=O)[C@H](CCCNC(=N)N)NC(=O)[C@H](CCC(N)=O)NC(=O)[C@@H](NC(=O)[C@H](C)NC(=O)[C@@H]1CSSC[C@H](NC(=O)[C@@H](N)CCCCNC(=O)CC[C@H](NC(=O)CC[C@H](NC(=O)CCCCCCCCCCCCCCCCC(=O)O)C(=O)O)C(=O)O)C(=O)N[C@@H](CC(N)=O)C(=O)N[C@@H]([C@@H](C)O)C(=O)N[C@@H](C)C(=O)N[C@@H]([C@@H](C)O)C(=O)N1)[C@@H](C)O)C(C)C)C(=O)N[C@@H](CC(C)C)C(=O)N1CCC[C@H]1C(=O)N1CCC[C@H]1C(=O)N[C@H](C(=O)N[C@@H](CC(N)=O)C(=O)N[C@H](C(=O)NCC(=O)N[C@@H](CO)C(=O)N[C@@H](CCCNC(=N)N)C(=O)N[C@H](C(=O)N[C@@H](Cc1ccc(O)cc1)C(N)=O)[C@@H](C)O)C(C)C)[C@@H](C)O [Peptide 21, K(γE-γE-C18diacid)[CNTATC]ATQRLANFLVHSSNN(αMePhe)GPILPPTNVGSRTY-amide] (H-K([γGlu-γGlu-C18 diacid])CNTATCATQRLANFLVHSSNN[αMeF]GPILPPTNVGSRTY-NH2; disulfide 2-7; N-terminus assumed)
